# Reference: patent US10835549B2, “Polyplexes” (Vanderbilt University, priority 2013, dated 2020)
# No end group written: not given here.
# Assays:
# [1] = system: human bronchiolar airway smooth muscle (HASM); experiment: Relaxation of human bronchiolar airway smooth muscle (HASM); design: unit not given here
# [2] = system: rat aortic smooth muscle; experiment: Rat aortic smooth muscle contraction (muscle bath, phenylephrine); conditions: 30 minutes incubation, phenylephrine challenge, n=6
# Procedure: FIGS. 71-73 show the results of an example wherein rat aortic smooth muscle was suspended on a muscle bath apparatus. Tissue was equilibrated in bicarbonate buffer and challenged with KCl (110 mM) to confirm viability of the tissue. After returning the tissue to basal tension, the smooth muscle was challenged with 5*10^−8 M phenylephrine (5*10^−8 M) and then washed with bicarbonate buffer. The tissue was then returned to basal tension through subsequent washes of bicarbonate buffer and then either treated with control, AZX 100 peptide, or AZX polyplexes. After 30 minutes of incubation, the tissue was challenged with phenylephrine, and the contractile force was compared with the initial contraction to determine the percent inhibition that occurs. […] (n=6)
# [3] = system: human saphenous vein; experiment: HSV enhanced relaxation with AZX 100 (muscle bath, phenylephrine / sodium nitroprusside); conditions: 30 minutes incubation, n=3
# [4] = Flow cytometric quantification of intracellular uptake and retention; conditions: human
# Procedure: (§1) HCAVSMCs were grown to 80-90% confluence, harvested, and seeded at 20,000 cells per well in a 24-well plate and were allowed to adhere overnight in low serum media. […] Following treatment, cells were washed with PBS −/−, washed with CellScrub buffer (Genlantis) for 10 minutes at room temperature to remove extracellular polyplexes and/or peptide, washed 2× in PBS −/−, and the media was refreshed with complete growth media. Cells were then incubated for an additional 0, 12, 24, 72, or 120 hours. Cells were then washed with PBS −/−, trypsinized, and resuspended in 0.1% Trypan blue in PBS (−/−) for analysis on a FACSCalibur flow cytometer (Becton Dickinson) with BD CellQuest™ Pro software (V 5.2). Data was exported and analyzed with FlowJo software (V 7.6.4). All samples are run in triplicate.
# (§2) Studies were done using a fluorescently labeled peptide and flow cytometry. […] Exponential lines were fit to each data set in order to determine a fluorescence half-life for each treatment group. Mean Fluorescence Intensity values were reported as increase in MFI compared to untreated controls, n=3.
# [5] = system: HCAVSMCs; experiment: as above; conditions: HCAVSMCs, up to 5 days after treatment
# Procedure: as §1, §2
Substance,"Relaxation of HASM ([1]; HASM 11, .5 mM)","Relaxation of HASM ([1]; HASM 17, 1 mM)","Relaxation of HASM ([1]; HASM 17, .5 mM)","Relaxation of HASM ([1]; HASM 18, 1 mM)","Relaxation of HASM ([1]; HASM 20, 1 mM)","Relaxation of HASM ([1]; HASM 20, .5 mM)","Relaxation of HASM ([1]; HASM 22, 1 mM)","Relaxation of HASM ([1]; HASM 22, .5 mM)",inhibition of contraction [2],enhancement of relaxation [3],half-life at 10 μM [4] [h],intracellular retention of the peptide [5]
"AZX 100 peptide: AZX100 peptide (SEQ ID NO: 2), which can be utilized for airway relaxation (YARAAARQARAWLRRASAPLPGLK; AZX-100 Sequence)",24,25,10,80,76,36,84,40,dose dependent inhibition of contraction,dose dependent enhancement of relaxation,,
YARAAARQARAKALARQLGVAA [MK2i],,,,,,,,,,,98.4,more rapidly lost intracellular peptide
